The values that follow are results of earlier work, collected in patent publication US8022220B2, “Process for production of piperidine derivatives” (Albany Molecular Research, Inc., priority 1995, dated 2011).

For the data set, the system named is delayed rectifier potassium current. Particulars: concentrations up to 5 μM; isolated feline ventricular myocytes.

Take `CC(C)(C(=O)O)c1ccc(C(O)CCCN2CCC(C(O)(c3ccccc3)c3ccccc3)CC2)cc1` (stereo not drawn) [terfenadine carboxylic acid metabolite, 4-[4-[4-(hydroxydiphenylmethyl)-1-piperidinyl]-1-hydroxybutyl]-α-α-dimethylphenylacetic acid]: the “effect on the potassium current” value is listed as “no significant effect”.
